Reference: patent publication US20240415787A1, “COMPOSITION FOR TREATING OR PREVENTING OBESITY OR OBESITY-ASSOCIATED LIVER DISEASE, COMPRISING VERBENONE DERIVATIVES” (SHIN POONG PHARMACEUTICAL CO., LTD., priority 2021, published 2024)
Each block holds one compound with its values, some of them ahead of it.

How the values were obtained:
[1] = Solubility in saline / water; assay type: physicochemical
[2] = Efficacy of suspension versus soluble prodrug form; conditions: suspension in saline
[3] = system: phosphorylation of Smad2/3; assay: Western blot of Smad2/3 phosphorylation in VAT of HFD-induced mice; assay type: in vivo; conditions: 50 mg/kg as SP-8356 via water, 20 weeks, vs HFD
Excerpt: (§1) Male C57BL/6 mice (6 weeks old, 20 g body weight) were purchased from Orient-Bio (Seongnam, Korea). All mice were maintained in a 12-hr light/dark cycle and fed ad libitum. To minimize environmental differences, mice were allowed 2 weeks for acclimation before the start of experiments. For diet-induced NAFLD experiments, mice were fed either an HFD (60% of kcal in fat, D12492, Research Diets, NJ, USA) or a normal chow diet (ND) for 20 weeks. All experimental protocols and procedures were approved by the Ethics Committee and the Institutional Animal Care and Use Committee of Korea University College of Medicine (Approval No. KOREA-2019-0026).
(§2) The mice were subdivided into vehicle and SP-1154 (50 mg/kg as SP-8356) groups. SP-1154 was administrated to the mice via tab water and the dose of drug was determined by daily water consumption (6 mL/day) and body weights, which were measured every week.
VAT was lysed in RIPA buffer (Thermo Fisher Scientific, Waltham, MA, USA) with protease inhibitor (GeneDepot, Barker, TX, USA). The protein concentration was quantified using the BCA protein assay kit (Thermo Fisher Scientific, Waltham, MA, USA). […] Protein bands were detected using the ECL assay kit (GE Healthcare, Chicago, IL, USA).

[4] = system: TGF-β1; assay: qRT-PCR of TGF-β1 mRNA in VAT of HFD-induced mice; assay type: in vivo; conditions: HFD vs HFD with SP-1154, 20 weeks
Excerpt: as §1, §2
(§3) Total RNA was extracted from VAT samples using the Trizol reagent (Invitrogen, Carlsbad, CA, USA) and the generation of cDNA was performed using the reverse transcription reaction kit (iScript cDNA synthesis kit, Bio-Rad, Hercules, CA, USA). Gene expression was assessed using SYBR Green mixture (iQTM SYBR Green Supermix, Bio-Rad, Hercules, CA, USA) and an iCycler PCR thermocycler (Bio-Rad, Hercules, CA, USA). […]

[5] = system: TGF-βR1; assay: qRT-PCR of TGF-βR1 mRNA in VAT of HFD-induced mice; assay type: in vivo; conditions: HFD vs HFD with SP-1154, 20 weeks
Excerpt: as §1, §2, §3

[6] = Body weight and food intake during 20-week HFD study; assay type: in vivo; conditions: HFD-induced mice, 50 mg/kg as SP-8356, 20 weeks; vs HFD
Excerpt: as §1, §2

[7] = system: VAT inflammation; assay: 18F-FDG PET/CT imaging of VAT metabolic activity (SUVmax); assay type: in vivo, mice
Excerpt: as §1
The mice were subdivided into vehicle and SP-1154 (50 mg/kg as SP-8356) groups. SP-1154 was administrated to the mice via tab water and the dose of drug was determined by daily water consumption (6 mL/day) and body weights, which were measured every week. […]
Images were analyzed by two experienced nuclear medicine physicians (KP and HWK) using commercially available software (Syngo. via, Siemens Healthcare, Erlangen, Germany). […] For the evaluation of VAT metabolic activity, region on interest (ROI) was placed along the intra-abdominal fat on each slice and the maximum standardized uptake value (SUVmax) was measured, as previously described. […]

[8] = system: C-reactive protein (CRP); assay: ELISA of serum C-reactive protein; assay type: in vivo, mice
Excerpt: as §1, §2
Serum concentration of C-reactive protein (CRP) was determined using a commercially available ELISA kit (ab157712, Abcam, Cambridge, MA, USA) according to the manufacturer's instruction.

[9] = system: CD68; assay: CD68 immunohistochemistry of VAT; assay type: in vivo, mice; conditions: IHC on harvested VAT; vs HFD
Excerpt: as §1, §2
(§4) Mice were sacrificed after 20 weeks of drug administration by using the CO2 chamber. […] Adipocyte surface area of a minimum of 300 cells per group was measured using ImageJ software (version 1.45 s, Bethesda, MD, USA), as previously described. Hepatic steatosis was assessed using three-scale scoring system based on H&E-stained liver: score 1 (mild, 5-33%); score 2 (moderate, 34-66%); score 3 (severe, >66%). […]

[10] = system: macrophage infiltration into VAT; assay: Flow cytometry of F4/80+CD11b+ macrophages in VAT; assay type: in vivo, mice; conditions: vs HFD
Excerpt: as §1, §2
Cells were suspended in 0.1 mL of fluorescence-activated cell sorting (FACS) buffer (phosphate-buffered saline; PBS with 5% fetal bovine serum; FBS) and incubated with Fc blocker (BD Bioscience, San Jose, CA, USA) at room temperature for 10 min, followed by an additional 30 min with anti-CD45 APC-Cy7, anti-F4/80 PE, and anti-CD11b-PerCP-Cy5.5 (Biolegend, San Diego, CA, USA) antibodies according to the manufacturer's recommendation. […]

[11] = system: GLUT1; assay: GLUT1 expression in VAT (immunostaining, qRT-PCR); assay type: in vivo, mice; conditions: 20 weeks of HFD, vs HFD
Excerpt: as §1, §2
(§5) Tissues were incubated with anti-CD68 (ab 125212, Abcam, Cambridge, MA, USA), anti-glucose transporter 1 (GLUT1) (ab652, Abcam, Cambridge, MA, USA), and anti-GLUT4 (ab654, Abcam, MA, USA). Alexa Fluor 594 (Invitrogen, Carlsbad, CA, USA) was used as secondary antibody. All fluorescence images were acquired with Zeiss Axio Scan.Z1 (Carl Zeiss, Jena, Germany). […]

[12] = system: GLUT4; assay: GLUT4 expression in VAT (immunostaining, qRT-PCR); assay type: in vivo, mice; conditions: 20 weeks of HFD, vs HFD
Excerpt: as §1, §2, §5

[13] = system: adipocytes in VAT; assay: Histopathology of VAT: adipocyte surface area; assay type: in vivo, mice; conditions: 20 weeks of HFD, vs HFD
Excerpt: as §1, §2, §4

[14] = Insulin tolerance test (ITT); assay type: in vivo; conditions: HFD-induced mice; vs HFD
Excerpt: as §1, §2
(§6) For GTT, glucose (2 g/kg body weight) was orally administered to mice after overnight fasting, and blood was drawn to measure glucose concentrations at indicated times thereafter. For ITT, insulin (1.5 insulin units/kg body weight) was intraperitoneally injected into mice after fasting for 4 hours, and blood was drawn to measure blood glucose at indicated times. Insulin concentrations were measured at each indicated time in serum collected from the mice subjected to GTT.

[15] = Glucose tolerance test (GTT); assay type: in vivo; conditions: HFD-induced mice; vs HFD
Excerpt: as §1, §2, §6

[16] = system: HFD-induced liver steatosis; assay: CT measurement of liver density (Hounsfield units); assay type: in vivo, mice; conditions: measured in HU, vs HFD
Excerpt: as §1, §2
^18F-FDG PET/CT was performed using a dedicated small animal PET/CT scanner (eXplore Vista DR PET/CT, GE Healthcare, Milwaukee, WI, USA). Mice were not fasted before taking examination and anesthetized with 2% isoflurane in oxygen (1 L/min) during the examination. PET/CT image acquisition was started 40 min after the injection of 18.5 MBq/0.1 mL of ^18F-FDG via the tail vein. Static PET images were acquired for 20 min, followed by CT scan (40 kV, 250 uA). […]

[17] = system: HFD-induced liver steatosis; assay: Liver weight and liver steatosis score of harvested liver; assay type: in vivo, mice; conditions: vs HFD
Excerpt: as §1, §2, §4

[18] = Blood analysis (serum AST, ALT, total cholesterol); assay type: in vivo, mice
Excerpt: as §1, §2
Blood samples were collected immediately before sacrifice. The levels of AST (aspartate aminotransferase), ALT (alanine aminotransferase), total cholesterol, and triglyceride in serum were measured using a FUJI DRI-Chemiclinical Chemistry Analyzer (FUJI DRI-CHEM 4000i, Fuji Film, Tokyo, Japan).

[19] = Conversion of prodrug to SP-8356
[20] = normal mice vs SP-1154-treated mice

- solubility in saline ([1]; saline): does not dissolve well in saline
Compound: COc1cc(C=CC2=CC(=O)[C@H]3C[C@@H]2C3(C)C)cc(O)c1O [SP-8356, (1S,5R)-4-(3,4-dihydroxy-5-methoxystyryl)-6,6-dimethylbicyclo[3.1.1]hept-3-en-2-one]
- efficacy when used as a suspension [2]: weak but significant

Compound: COc1cc(/C=C/C2=CC(=O)[C@H]3C[C@@H]2C3(C)C)cc(OC(=O)[C@@H](N)C(C)C)c1OC(=O)[C@@H](N)C(C)C.Cl.Cl [SP-1154, (2S,2'S)-5-((E)-2-((1R,5S)-6,6-dimethyl-4-oxobicyclo[3.1.1]hept-2-en-2-yl)vinyl)-3-methoxy-1,2-phenylene bis(2-amino-3-methylbutanoate)-dihydrochloride]
- phosphorylation of Smad2/3 in VAT [3]: inhibited
- mRNA expression level of TGF-β1 in VAT [4]: no significant difference
- mRNA expression level of TGF-βR1 in VAT [5]: no significant difference
- HFD-induced body weight gain [6]: significantly attenuated
- VAT SUVmax ([7]; 18F-FDG PET/CT after 20 weeks of HFD, vs HFD): significantly reduced
- VAT SUVmax, difference to normal mice [7, 20]: no significant difference
- CRP levels, difference to normal mice [8, 20]: no significant difference
- levels of CRP ([8]; serum, HFD-induced mice, vs HFD): significantly suppressed
- expression of CD68 in VAT [9]: suppressed
- macrophage infiltration into VAT [10]: significantly prevented
- GLUT1 expression [11]: decreased
- GLUT4 expression [12]: increased
- adipocyte size [13]: significant reduction
- insulin resistance (ITT) [14]: significantly improved
- glucose homeostasis (GTT) [15]: significantly improved
- liver density [16]: significantly enhanced
- liver steatosis score ([17]; H&E-stained liver, three-scale scoring): significantly reduced
- liver weight ([17]; harvested liver): significantly reduced
- serum total cholesterol ([18]; HFD vs HFD with SP-1154): no significant difference
- level of ALT ([18]; serum, HFD-induced mice): improved
- level of AST ([18]; serum, HFD-induced mice): improved
- water solubility ([1]; water): high
- conversion of prodrug to SP-8356 [19]: converted to SP-8356 very quickly
